Assay results as given in patent US9517993B2, “Antagonists of the toll-like receptor 1/2 complex” (THE REGENTS OF THE UNIVERSITY OF COLORADO, a body corporate, priority 2012, dated 2016).
Entries after “also recorded” stand apart in the source; their conditions may differ.

Columns and labels:
[1] = test system: RAW 264.7 cells; assay: MTT cytotoxicity assay; type: cell-based, mouse; details: for cytotoxicity: at the active dose, RAW 264.7 cells, MTT
Procedure: MTT Cytotoxicity Assay. In a 96-well plate 10,000 cells in 200 μL media (RPMI 1640 medium, supplemented with 10% FBS, penicillin (100 U/mL) and streptomycin ([…])) per well. Eight wells were left empty for blank controls. The plates were incubated (37° C., 5% CO2) overnight to allow the cells to attach to the wells. Add 20 ul (5 mg/mL) MTT solution to each well. Place on a shaking table, 150 rpm for 5 minutes, to thoroughly mix the MTT into the media. Incubate (37° C., 5% CO2) for 4 hours to allow the MTT to be metabolized. Dump off the media. Dry plate on paper towels to remove residue. Resuspend formazan (MTT metabolic product) in 200 ul DMSO. Place on a shaking table, 150 rpm for 5 minutes, to thoroughly mix the formazan into the solvent. When a clear difference could be seen by naked eye, results were read by spectrophotometer at 560 nm. Optical density should be directly correlated with cell quantity. Cytotoxicity (%) was determined using the following formula: Cytotoxicity (%) (1−[Compounds (OD560)−Background(OD560)]/[Control (OD560)−Background (OD560)])×100.

[2] = test system: TNF-α and IL-1β production; assay: Cytokine-specific ELISA in Pam3CSK4-activated RAW 264.7 cells; type: cell-based, mouse
Procedure: RAW 264.7 cells were planted in 6-well plates at 1,000,000 cells per well with 3 mL of medium (RPMI 1640 medium, supplemented with 10% FBS, penicillin (100 U/mL) and streptomycin ([…])) and grown for 24 h at 37° C. in a 5% CO2 humidified incubator. After 24 h, non-adherent cells and media were removed and replaced with fresh RPMI 1640 medium (3 mL/well). Two wells of adherent macrophages were treated with Pam3CSK4 (Invivogen, 300 ng/mL) as the positive control, two wells was treated with 8 μM compound 17, and the other two wells ware treated with 8 μM compound DMSO. Another 6 well plate were treated with Pam3CSK4 (Invivogen, 300 ng/mL) and different concentration of 17. Plates were then incubated for an additional 24 h. […] Approximately 400 μL of supernatant were collected into new tubes, frozen at −80° C. until ready for cytokine measurement. The production of the cytokine interleukin-1β (IL-1β) and TNF-α was quantified with enzyme-linked immunosorbent assays (ELISA) using cytokine-specific capture antibodies, biotinylated monoclonal detection antibodies, and recombinant human cytokine standards according to commercially available ELISA kits from R&D Systems. The cytokine level in each sample was determined in duplicate.

[3] = test system: isolated microglial cells; assay: IL-1β inhibition in isolated microglial cells incubated with Pam3CSK4; type: cell-based; details: Pam3CSK4 and compound for 2 hours, N=4, listed as CU-CPT22
Procedure: In vitro testing was conducted using primary cells (isolated microglial cells) incubated with Pam3CSK4 and CU-CPT22 for 2 hours.

[4] = test system: pro-inflammatory mRNA; assay: In vivo ICM co-administration with Pam3CSK4, hippocampal mRNA by real time RT-PCR; details: 5 ng or 50 ng ICM with Pam3CSK4 40 ng; hippocampus 2 hours after injection; listed as CU-CPT22
Procedure: In vivo testing was conducted by the administration of Pam3CSK4 and CU-CPTP22. CU-CPT22 (5 ng or 50 ng), suspended in 5 μl sterile saline or vehicle, was co-administered with the TLR2 agonist Pam3CSK4 (40 ng/4 μl) to the animal via the cisterna magna (ICM) with a 1 μl air bubble separating the two reagents. Two hours after injection, the animal's hippocampus was collected for pro-inflammatory mRNA analysis using real time RT-PCR procedures. […] (N=8 for each group).

[5] = biological target: TLR1/2 (Homo sapiens, UniProt O60603+Q15399); assay: Fluorescence anisotropy competition assay with rhodamine-labeled Pam3CSK4; type: binding; set-up: His; TLR2 made in house; host or cells: baculovirus; Sf-9 for virus, High Five insect cells for expression (TLR2)
TLR1/2, sequence (Q15399 25-580 limits assumed): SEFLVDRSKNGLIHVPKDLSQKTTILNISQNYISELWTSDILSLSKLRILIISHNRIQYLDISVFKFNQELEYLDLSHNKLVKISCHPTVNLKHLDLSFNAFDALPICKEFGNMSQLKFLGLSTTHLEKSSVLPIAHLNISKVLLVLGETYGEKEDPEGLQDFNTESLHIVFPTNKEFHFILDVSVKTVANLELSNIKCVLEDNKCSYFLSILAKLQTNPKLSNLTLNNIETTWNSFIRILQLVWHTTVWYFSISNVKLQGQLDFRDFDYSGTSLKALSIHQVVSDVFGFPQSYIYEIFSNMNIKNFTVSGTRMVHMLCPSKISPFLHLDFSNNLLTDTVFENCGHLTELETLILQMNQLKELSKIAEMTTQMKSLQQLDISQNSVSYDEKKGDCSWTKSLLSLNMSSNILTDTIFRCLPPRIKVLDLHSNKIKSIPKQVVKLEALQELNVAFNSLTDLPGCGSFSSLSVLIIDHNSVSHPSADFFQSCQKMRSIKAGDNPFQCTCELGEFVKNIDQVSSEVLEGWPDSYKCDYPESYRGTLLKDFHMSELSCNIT
TLR1/2, sequence (O60603 21-588 limits assumed): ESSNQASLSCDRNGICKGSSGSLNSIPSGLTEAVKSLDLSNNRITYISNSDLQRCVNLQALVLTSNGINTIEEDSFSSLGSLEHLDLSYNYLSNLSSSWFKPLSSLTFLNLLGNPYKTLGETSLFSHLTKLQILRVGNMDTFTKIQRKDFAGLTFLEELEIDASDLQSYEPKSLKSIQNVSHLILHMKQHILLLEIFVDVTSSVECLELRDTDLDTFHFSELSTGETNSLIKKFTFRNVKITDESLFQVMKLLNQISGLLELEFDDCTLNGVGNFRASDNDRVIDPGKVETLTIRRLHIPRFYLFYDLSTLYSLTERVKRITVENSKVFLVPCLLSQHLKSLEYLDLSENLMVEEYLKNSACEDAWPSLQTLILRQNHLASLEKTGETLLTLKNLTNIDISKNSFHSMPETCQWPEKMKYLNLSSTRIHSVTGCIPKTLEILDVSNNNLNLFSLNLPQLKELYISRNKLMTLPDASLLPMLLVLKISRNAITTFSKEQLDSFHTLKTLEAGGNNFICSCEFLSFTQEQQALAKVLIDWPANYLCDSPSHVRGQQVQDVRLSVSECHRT
Description: The TLR2 protein was expressed in the baculovirus insect cell expression system using the methods described by Kuroki et al. See Iwaki et al., The extracellular Toll-like receptor 2 domain directly binds peptidoglycan derived from Staphylococcus aureus, J. Biol Chem (2002), 277:24315-20, which is herein incorporated by reference in its entirety. The activity of the TLR2 protein was validated by the fluorescence anisotropy assay. […] Good fitting (R2>0.98) inferred that compound 17 and Pam3CSK4 compete for the same binding site on the TLR1/2 dimeric surface.
In 500 μL Tris buffer (pH=7.2) add 10 μL, (1 ng/mL) rhodamine-labeled Pam3CSK4, test the fluorescence anisotropy at excitation of 549 nm and emission of 566 nm (Horiba Fluorolog 3). And 5 μL (20 μM) TLR1 (R &D) and 5 μL, (20 μM) TLR2 was added into the above buffer, then retest the anisotropy. Following, compound 17 or compound 6 was added in the buffer from the concentration of 0 to 6 μM, and the fluorescence anisotropy was tested in the corresponding concentration.
Fluorescence polarization experiments were performed at 25° C. using a Horiba Fluorolog-3 fluorometer. For direct binding measurements, serial dilutions of TLR1 (R&D, MN) and TLR2 were made in Tris buffer (pH=7.2), and an aliquot (10 μL) of 1 ng/mL rhodamine labeled Pam3CSK4, was added to a total volume of 500 μL. The competition binding solution was incubated for 30 minutes at 25° C. Serial dilutions of compound 17 or compound 6 were incubated with 20 μM TLR1, 20 μM TLR2 and rhodamine-labeled Pam3CSK4 for 30 min at room temperature.
Regression analysis was carried out using Origin 7.5 (OriginLab) ligand binding macro module. […] Equation (1): y=min+(max−min)/(1+10^x-logIC50)(total binding, x=log concentration of and rhodamine-labeled Pam3CSK4, min=nonspecific binding, max=maximum binding in absence of ligand). Equation (2): Ki=IC50/(1+[L]/Kd) ([L]=concentration of rhodamine-labeled Pam3CSK4).

CCCCCCOC(=O)c1cc(O)c(=O)c2c(O)c(O)c(OC)cc2c1 [compound 17, Hexyl 3,4,6-trihydroxy-2-methoxy-5-oxo-5H-benzo[7]annulene-8-carboxylate]
cytotoxicity [1]: no significant cytotoxicity | cytotoxicity ([1]; listed as CU-CPT22): low toxicity | toxicity by MTT assay ([1]; under 8 μM): no significant toxicity issues | TNF-α inhibition (ELISA) ([2]; RAW 264.7, 300 ng/mL Pam3CSK4): TNF-α inhibition | IL-1β production (ELISA) ([2]; RAW 264.7, activated by 300 ng/mL Pam3CSK4): inhibited | inhibition of IL-1β [3]: Dose-dependent inhibition | IL-6 / M-6 mRNA expression (FIG. 10c) [4]: strongly inhibits; also recorded: strong inhibition | TNF-α mRNA expression (FIG. 10b) [4]: strongly inhibits; also recorded: strong inhibition | mRNA expression (FIG. 10a) [4]: strongly inhibits; also recorded: strong inhibition | anisotropy of rhodamine-labeled Pam3CSK4 with TLR1/2 ([5]; compound concentration increased to 6 μM): decreased the anisotropy to background levels | competition with Pam3CSK4 for TLR1/2 (in words) ([5]; fluorescence anisotropy): competitive binding | Ki ([5]; rhodamine-labeled Pam3CSK4, one-site competition model, read-out: inhibition constant (Ki), competition with Pam3CSK4 for binding to TLR1/2): 0.41 µM
